Assay results taken from patent US20220117972A1, “USE OF PPAR-DELTA AGONISTS IN THE TREATMENT OF MITOCHONDRIAL MYOPATHY” (Reneo Pharmaceuticals, Inc., priority 2019, published 2022).
Like-named read-outs stand apart in the source and are kept apart here.

How the values were obtained:
PGC1, CPT1b expression = test: in vivo gene expression in mouse muscle, second study (time course); details: male C57BL/6 mice, 30 mg/kg once daily, at 48 hrs
Method: In a second study, male C57BL/6 mice were dosed once daily for four consecutive days. On the first day of treatment all mice in each group received a single dose of either the vehicle or Compound 1 at 30 mg/kg. Following the dose administration on the first day, five mice from each group were anesthetized and euthanized at each of the following time points: 1, 2, 4, 8, 24, 48, 72 and 96 hours. Animals left after the time point 24 hours received the second dose. Animals left after the time point 48 hours received the third dose. Animals left after the time point 72 hours received the fourth dose. Mice designated for time point 96 hours were euthanized on day 5.

hPPARα = target: T1, hPPARα (Homo sapiens, UniProt Q07869); test: PPAR receptor transactivation assay, human PPARα; type: cell-based
T1 construct: expressed in transfected cells; host or cells: Jump-In GripTite HEK293
T1 sequence (Q07869 239-466 limits assumed): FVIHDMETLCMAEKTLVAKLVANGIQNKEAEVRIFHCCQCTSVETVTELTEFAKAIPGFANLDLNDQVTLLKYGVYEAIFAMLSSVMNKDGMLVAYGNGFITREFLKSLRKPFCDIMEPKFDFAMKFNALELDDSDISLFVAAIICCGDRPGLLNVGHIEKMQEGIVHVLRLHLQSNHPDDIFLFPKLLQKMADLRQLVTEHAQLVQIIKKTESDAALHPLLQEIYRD
Method: (§1) Compound 1 was tested on all three human PPAR subtypes (hPPAR): hPPARα, hPPARγ, and hPPARδ. All assays were repeated at least three times for each subtype.
(§2) The genes of interest were synthesized and cloned into an appropriate Jump-In™ retargeting vector following the User Guide of the Jump-In™ T-REx™ HEK293 Retargeting Kit (ThermoFisher Catalog No A15008). For example, the vector will be used to transfect and retarget the Jump-In™ HEK293 GripTite™ parental cell line. Stable pools will be antibiotic-selected for about 21 days and tested for target gene expression by functional assay.
(§3) Jump-In™ GripTite™ HEK293 parental cells were plated at 60-80% confluency in a T-75 flask in growth medium without antibiotics and transfected with a 1:1 ratio of expression construct and R4 integrase expression construct (20 μg DNA total) using Lipofectamine® LTX (50 μL) and PLUS™ Reagent (20 μL). Following a 48 hours incubation, cells were selected with 600 μg/mL Geneticin® and 10 μg/mL Blasticidin for ˜21 days in growth medium.
(§4) Jump-In™ GripTite™ HEK293 rPPAR Alpha, Delta or Gamma UAS-bla-Gal4 cell pools were plated in a 384-well plate format (20,000 cells per well) in OptiMeM without FBS in replicates (n=4). Cells were allowed to adhere for 8 hours before addition of Compound 1 (1 mM top concentration, 3-fold dilutions, 10-point titration). After 16 hours, the cells were loaded with LiveBLAzer®, a fluorescent BLA substrate that gives a blue/green readout of expressing/non-expressing cells, respectively. The blue/green readout was measured on a fluorescent plate reader (Tecan Safire II).

hPPARγ = target: T2, hPPARγ (Homo sapiens, UniProt P37231); test: PPAR receptor transactivation assay, human PPARγ; type: cell-based
T2 construct: expressed in transfected cells; host or cells: Jump-In GripTite HEK293
T2 sequence (P37231 238-503 limits assumed): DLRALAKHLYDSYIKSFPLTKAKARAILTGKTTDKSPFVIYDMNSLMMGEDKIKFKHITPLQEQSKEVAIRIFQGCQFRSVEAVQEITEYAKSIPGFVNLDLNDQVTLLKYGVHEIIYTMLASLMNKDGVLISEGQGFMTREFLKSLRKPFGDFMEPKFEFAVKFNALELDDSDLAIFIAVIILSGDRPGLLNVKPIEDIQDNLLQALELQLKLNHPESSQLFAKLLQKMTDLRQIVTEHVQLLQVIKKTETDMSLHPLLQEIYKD
Method: as §1, §2, §3, §4

human muscle cell lines = test: fatty acid oxidation in human muscle cell line; type: cell-based; details: in vitro
PPARγ = target: T3, PPARγ (Macaca mulatta, UniProt O18924); test: PPAR receptor transactivation assay, monkey PPARγ; type: cell-based
T3 construct: expressed in transfected cells; host or cells: Jump-In GripTite HEK293
T3 sequence (O18924 238-503 limits assumed): T2 sequence (P37231 238-503 limits assumed)
Method: as §2, §3
as §4, with “Cells were allowed to adhere for 8 hours before addition of Compound 1 (1 mM top concentration, 3-fold dilutions, 10-point titration).” left out

PPARα = target: T4, PPARα (UniProt Q4PNY3); test: PPAR receptor transactivation assay, monkey PPARα; type: cell-based
T4 construct: This is inferred from the cell pool name 'UAS-bla-Gal4' and from the general description in b82 and b85
T4 sequence (Q4PNY3 1-467): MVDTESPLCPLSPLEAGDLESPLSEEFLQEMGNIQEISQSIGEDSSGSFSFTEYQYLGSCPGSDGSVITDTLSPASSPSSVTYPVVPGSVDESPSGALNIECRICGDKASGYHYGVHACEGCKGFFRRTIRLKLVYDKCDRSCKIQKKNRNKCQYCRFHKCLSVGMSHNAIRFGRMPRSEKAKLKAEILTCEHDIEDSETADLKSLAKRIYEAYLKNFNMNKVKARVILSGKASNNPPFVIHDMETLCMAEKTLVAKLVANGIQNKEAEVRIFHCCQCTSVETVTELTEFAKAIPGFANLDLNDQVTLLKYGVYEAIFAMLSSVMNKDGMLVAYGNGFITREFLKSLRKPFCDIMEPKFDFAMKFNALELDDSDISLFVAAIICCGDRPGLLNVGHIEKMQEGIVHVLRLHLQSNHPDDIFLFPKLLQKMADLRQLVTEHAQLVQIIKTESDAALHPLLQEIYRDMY

PPARδ = target: T5, PPARδ (Mus musculus, UniProt P35396); test: PPAR receptor transactivation assay, mouse PPARδ; type: cell-based
T5 construct: expressed in transfected cells; host or cells: Jump-In GripTite HEK293
T5 sequence (P35396 210-438 limits assumed): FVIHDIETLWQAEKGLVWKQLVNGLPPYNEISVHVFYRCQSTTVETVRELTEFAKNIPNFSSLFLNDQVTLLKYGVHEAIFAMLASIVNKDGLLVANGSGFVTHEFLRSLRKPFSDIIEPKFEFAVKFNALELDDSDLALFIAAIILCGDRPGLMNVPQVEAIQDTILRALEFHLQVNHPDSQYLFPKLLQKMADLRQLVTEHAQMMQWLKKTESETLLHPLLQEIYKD

[1] = system: PPARδ regulated genes (CPT1b, PDK4, PGC-1α); test: in vivo gene expression in mouse muscle, 7-day study; details: male C57BL/6 mice, oral 30 mg/kg once daily 7 days, quadriceps muscle 4 h after final dose
Method: Male C57BL/6 mice were administered an oral dose of Compound 1 at 30 mg/kg, once daily for 7 consecutive days. Four hours following the final dose administration on day 7, all mice were euthanized, and two samples of quadriceps muscle were dissected from the right and left limbs.

EC50 (hPPARα; Human PPARα, read-out: EC50 (nM) Mean): > 10000 nM
EC50 (hPPARα; human PPARα, Example 12, read-out: EC50): > 10000 nM
activity on PPARα in transactivation assays (hPPARα; in some cases): negligible activity
agonist type at PPARα (hPPARα; in some cases): partial agonist
EC50 (hPPARγ; Human PPARγ): > 10000 nM
activity on PPARγ in transactivation assays (hPPARγ; in some cases): negligible activity
agonist type at PPARγ (hPPARγ; in some cases): partial agonist
EC50 (PPARγ): > 1000 nM
EC50 (PPARα): > 1000 nM
EC50 (PPARδ): 240 nM
Compound: Cc1cc(OC/C=C(/c2ccc(F)cc2)c2ccc(C#CCN3CCOCC3)cc2)ccc1OCC(=O)O [Compound 1, (E)-[4-[3-(4-Fluorophenyl)-3-[4-[3-(morpholin-4-yl)propynyl]phenyl]allyloxy]-2-methyl-phenoxy]acetic acid]
expression of CPT1b (PGC1, CPT1b expression): increased the expression
expression of PGC1 (PGC1, CPT1b expression): increased the expression
fatty acid oxidation (human muscle cell lines): dose-dependent increase
expression patterns of PPARδ regulated genes (CPT1b, PDK4, PGC-1α) [1]: altered the expression patterns
